Assay results published in patent US20250230193A1, “CYCLIC COMPOUND HAVING SELECTIVE KRAS INHIBITORY EFFECT ON HRAS AND NRAS” (CHUGAI SEIYAKU KABUSHIKI KAISHA, priority 2022, published 2025).

Columns and labels:
[1] = target: GDP-bound NRAS wild-type protein (Homo sapiens, UniProt P01111); assay: Binding to NRAS by surface plasmon resonance (SPR), Single Cycle Kinetics; settings: SPR, GDP-bound NRAS wild-type vs GDP-bound KRAS wild-type
[2] = target: GDP-bound HRAS wild-type protein (Homo sapiens, UniProt P01112); assay: Binding to HRAS by surface plasmon resonance (SPR), Single Cycle Kinetics; settings: SPR, GDP-bound HRAS wild-type vs GDP-bound KRAS wild-type
Sequence of GDP-bound HRAS wild-type protein (P01112 whole entry): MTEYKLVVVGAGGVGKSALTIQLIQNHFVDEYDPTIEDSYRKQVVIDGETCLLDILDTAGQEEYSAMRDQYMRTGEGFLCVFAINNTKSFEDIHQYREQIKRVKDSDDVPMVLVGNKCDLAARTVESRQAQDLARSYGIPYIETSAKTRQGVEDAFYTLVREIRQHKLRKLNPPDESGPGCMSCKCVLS

Sequence of GDP-bound NRAS wild-type protein (P01111 whole entry): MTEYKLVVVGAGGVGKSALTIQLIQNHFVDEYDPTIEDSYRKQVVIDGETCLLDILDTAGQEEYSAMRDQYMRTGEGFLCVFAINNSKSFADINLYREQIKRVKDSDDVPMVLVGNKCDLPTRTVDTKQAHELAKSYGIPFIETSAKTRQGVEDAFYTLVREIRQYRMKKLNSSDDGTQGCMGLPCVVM

| SMILES | NRAS/KRAS (ratio of KD value with respect to NRAS to KD value with respect to KRAS) [1] | HRAS/KRAS (ratio of KD value with respect to HRAS to KD value with respect to KRAS) [2] |
| --- | --- | --- |
| CCC[C@@H]1C[C@H]2C(=O)NC3(CCC3)C(=O)N(C)[C@@H](C3CCCC3)C(=O)N(C)[C@H](C(=O)N(C)C)CC(=O)N(C)[C@@H](CC(C)C)C(=O)N[C@@H]([C@@H](C)CC)C(=O)N(C)CC(=O)N(C)[C@H]3C/C=C\CCN(C3=O)[C@@H](Cc3ccc(C)cc3)C(=O)N(C)CC(=O)N[C@@H](CCc3cc(F)c(C(F)(F)F)c(F)c3)C(=O)N2C1 [PP2231] | A (a compound having 10 or more and less than 20 is denoted as A) | B (a compound having 3 or more and less than 10 is denoted as B) |
| CCCOC[C@H]1C(=O)N[C@@H]([C@@H](C)CC)C(=O)N(C)CC(=O)N(C)[C@H]2C/C=C\CCN(C2=O)[C@@H](Cc2ccc(C)cc2)C(=O)N(C)CC(=O)N[C@@H](CCc2cc(F)c(C(F)(F)F)c(F)c2)C(=O)N2C[C@H](CCC)C[C@H]2C(=O)NC2(CCC2)C(=O)N(C)[C@@H](C2CCCC2)C(=O)N(C)[C@H](C(=O)N(C)C)CC(=O)N1C [PP2232] | A (a compound having 10 or more and less than 20 is denoted as A) | A (a compound having 10 or more and less than 20 is denoted as A) |
| CCC[C@@H]1C[C@H]2C(=O)NC3(CCC3)C(=O)N(C)[C@@H](C3CCCC3)C(=O)N(C)[C@H](C(=O)N(C)C)CC(=O)N(C)[C@@H](CC)C(=O)N[C@@H]([C@@H](C)CC)C(=O)N(C)CC(=O)N(C)[C@H]3C/C=C\CCN(C3=O)[C@@H](Cc3ccc(C)cc3)C(=O)N(C)CC(=O)N[C@@H](CCc3cc(F)c(C(F)(F)F)c(F)c3)C(=O)N2C1 [PP2233] | A (a compound having 10 or more and less than 20 is denoted as A) | A (a compound having 10 or more and less than 20 is denoted as A) |
| CCCOC[C@H]1C(=O)N[C@@H]([C@@H](C)CC)C(=O)N(C)CC(=O)N(C)[C@H]2C/C=C\CCN(C2=O)[C@@H](Cc2ccc(C)cc2)C(=O)N(C)CC(=O)N[C@@H](CCc2ccc(C(F)(F)F)c(Cl)c2)C(=O)N2C[C@H](C)C[C@H]2C(=O)NC2(CC(C)(C)C2)C(=O)N(C)[C@@H](C2CCCC2)C(=O)N(C)[C@H](C(=O)N(C)C)CC(=O)N1C [PP2234] | A (a compound having 10 or more and less than 20 is denoted as A) | A (a compound having 10 or more and less than 20 is denoted as A) |
| CCCOC[C@H]1C(=O)N[C@@H]([C@@H](C)CC)C(=O)N(C)CC(=O)N(C)[C@H]2C/C=C\CCN(C2=O)[C@@H](Cc2ccc(C)cc2)C(=O)N(C)CC(=O)N[C@@H](CCc2ccc(C(F)(F)F)c(Cl)c2)C(=O)N2C[C@H](CC)C[C@H]2C(=O)NC2(CC(C)(C)C2)C(=O)N(C)[C@@H](C2CCCC2)C(=O)N(C)[C@H](C(=O)N(C)C)CC(=O)N1C [PP2235] | A (a compound having 10 or more and less than 20 is denoted as A) | A (a compound having 10 or more and less than 20 is denoted as A) |
| CCC[C@H]1C(=O)N[C@@H]([C@@H](C)CC)C(=O)N(C)CC(=O)N(C)[C@H]2C/C=C\CCN(C2=O)[C@@H](Cc2ccc(C)cc2)C(=O)N(C)CC(=O)N[C@@H](CCc2ccc(C(F)(F)F)c(Cl)c2)C(=O)N2C[C@H](CC)C[C@H]2C(=O)NC2(CCC2)C(=O)N(C)[C@@H](C2CCCC2)C(=O)N(C)[C@H](C(=O)N(C)C)CC(=O)N1C [PP2237] | A (a compound having 10 or more and less than 20 is denoted as A) | A (a compound having 10 or more and less than 20 is denoted as A) |
| CCC[C@@H]1C[C@H]2C(=O)NC3(CCC3)C(=O)N(C)[C@@H](C3CCCC3)C(=O)N(C)[C@H](C(=O)N(C)C)CC(=O)N(C)[C@@H](CCC)C(=O)N[C@@H]([C@@H](C)CC)C(=O)N(C)CC(=O)N(C)[C@H]3C/C=C\CCN(C3=O)[C@@H](Cc3ccc(C)cc3)C(=O)N(C)CC(=O)N[C@@H](CCc3ccc(C(F)(F)F)c(Cl)c3)C(=O)N2C1 [PP2238] | A (a compound having 10 or more and less than 20 is denoted as A) | A (a compound having 10 or more and less than 20 is denoted as A) |
| CCC[C@H]1C(=O)N[C@@H](C2CCC2)C(=O)N(C)CC(=O)N(C)[C@H]2C/C=C\CCN(C2=O)[C@@H](Cc2ccc(C)cc2)C(=O)N(C)CC(=O)N[C@@H](CCc2ccc(C(F)(F)F)c(F)c2)C(=O)N2C[C@H](OCC)C[C@H]2C(=O)NC2(CC(C)(C)C2)C(=O)N(C)[C@@H](C2CCC2)C(=O)N(C)[C@H](C(=O)N(C)C)CC(=O)N1C [PP2242] | A (a compound having 10 or more and less than 20 is denoted as A) | A (a compound having 10 or more and less than 20 is denoted as A) |
| CCO[C@@H]1C[C@H]2C(=O)NC3(CC(C)(C)C3)C(=O)N(C)[C@@H](C3CCCC3)C(=O)N(C)[C@H](C(=O)N(C)CC)CC(=O)N(C)[C@H]3CCCCCc4ccc(cc4)C[C@@H](C(=O)N(C)CC(=O)N[C@@H](CCc4ccc(C(F)(F)F)c(OC)c4)C(=O)N2C1)N1CC/C=C\C[C@@H](C1=O)N(C)C(=O)CN(C)C(=O)[C@H]([C@@H](C)CC)NC3=O [PP2259] | A (a compound having 10 or more and less than 20 is denoted as A) | B (a compound having 3 or more and less than 10 is denoted as B) |
| CCO[C@@H]1C[C@H]2C(=O)NC3(CC(C)(C)C3)C(=O)N(C)[C@@H](C3CCCC3)C(=O)N(C)[C@H](C(=O)N(C)CC)CC(=O)N(C)[C@H]3CCCCCCc4ccc(cc4)C[C@@H](C(=O)N(C)CC(=O)N[C@@H](CCc4ccc(C(F)(F)F)c(OC)c4)C(=O)N2C1)N1CC/C=C\C[C@@H](C1=O)N(C)C(=O)CN(C)C(=O)[C@H]([C@@H](C)CC)NC3=O [PP2260, (1S,7S,11R,13S,19S,22S,26S,29S,35S,37Z)-19-cyclopentyl-11-ethoxy-N-ethyl-7-[2-[3-methoxy-4-(trifluoromethyl)phenyl]ethyl]-N,3,3′,3′,18,21,25,31,34-nonamethyl-29-[(1S)-1-methylpropyl]-2,5,8,14,17,20,24,27,30,33,55-undecaoxo-spiro[3,6,9,15,18,21,25,28,31,34,41-undecazapentacyclo[24.15.11.2^43,46.1^35,41.0^9,13]pentapentaconta-37,43(54),44,46(53)-tetraene-16,1′-cyclobutane]-22-carboxamide] | A (a compound having 10 or more and less than 20 is denoted as A) | A (a compound having 10 or more and less than 20 is denoted as A) |
| CCO[C@@H]1C[C@H]2C(=O)NC3(CCC3)C(=O)N(C)[C@@H](C3CCCC3)C(=O)N(C)[C@H](C(=O)N(C)C)CC(=O)N(C)[C@H]3CCCCCc4ccc(cc4)C[C@@H](C(=O)N(C)CC(=O)N[C@@H](CCc4cc(F)c(C(F)(F)F)c(F)c4)C(=O)N2C1)N1CC/C=C\C[C@@H](C1=O)N(C)C(=O)CN(C)C(=O)[C@H]([C@@H](C)CC)NC3=O [PP2261] | A (a compound having 10 or more and less than 20 is denoted as A) | A (a compound having 10 or more and less than 20 is denoted as A) |
| CCO[C@@H]1C[C@H]2C(=O)NC3(CCC3)C(=O)N(C)[C@@H](C3CCCC3)C(=O)N(C)[C@H](C(=O)N(C)C)CC(=O)N(C)[C@H]3CCCCCc4ccc(cc4)C[C@@H](C(=O)N(C)CC(=O)N[C@@H](CCc4ccc(C(F)(F)F)c(OC)c4)C(=O)N2C1)N1CC/C=C\C[C@@H](C1=O)N(C)C(=O)CN(C)C(=O)[C@H]([C@@H](C)CC)NC3=O [PP2262] | A (a compound having 10 or more and less than 20 is denoted as A) | B (a compound having 3 or more and less than 10 is denoted as B) |
| CCO[C@@H]1C[C@H]2C(=O)NC3(CCC3)C(=O)N(C)[C@@H](C3CCCC3)C(=O)N(C)[C@H](C(=O)N(C)CC)CC(=O)N(C)[C@H]3CCCCCCc4ccc(cc4)C[C@@H](C(=O)N(C)CC(=O)N[C@@H](CCc4ccc(C(F)(F)F)c(OC)c4)C(=O)N2C1)N1CC/C=C\C[C@@H](C1=O)N(C)C(=O)CN(C)C(=O)[C@H]([C@@H](C)CC)NC3=O [PP2263] | A (a compound having 10 or more and less than 20 is denoted as A) | A (a compound having 10 or more and less than 20 is denoted as A) |
| CCO[C@@H]1C[C@H]2C(=O)NC3(CCC3)C(=O)N(C)[C@@H](C3CCCC3)C(=O)N(C)[C@H](C(=O)N(C)C)CC(=O)N(C)[C@H]3CCCCCCc4ccc(cc4)C[C@@H](C(=O)N(C)CC(=O)N[C@@H](CCc4ccc(C(F)(F)F)c(OC)c4)C(=O)N2C1)N1CC/C=C\C[C@@H](C1=O)N(C)C(=O)CN(C)C(=O)[C@H]([C@@H](C)CC)NC3=O [PP2264] | AA (a compound having 20 or more is denoted as AA) | A (a compound having 10 or more and less than 20 is denoted as A) |
| CC[C@H](C)[C@@H]1NC(=O)[C@H](CC(C)C)N(C)C(=O)C[C@@H](C(=O)N(C)C)N(C)C(=O)[C@H](C2CCCC2)N(C)C(=O)C2(CCCC2)NC(=O)[C@@H]2C[C@H](C)CN2C(=O)[C@H](CCc2cc(F)c(C(F)(F)F)c(F)c2)NC(=O)CN(C)C(=O)[C@H](Cc2ccc(C(F)(F)F)cc2)N2CC/C=C\C[C@@H](C2=O)N(C)C(=O)CN(C)C1=O [PP2268] | A (a compound having 10 or more and less than 20 is denoted as A) | A (a compound having 10 or more and less than 20 is denoted as A) |
